{"source": "ChEMBL document CHEMBL3797052", "about": "(Eur J Med Chem, 2016)", "data": [{"tested_on": "SN12C", "assay": "Antiproliferative activity against human SN12C cells assessed as cell growth at 10^-7 M after 48 hrs by sulforhodamine B assay", "assay_type": "functional", "conditions": "read-out: Activity", "units": {"growth at 0.1 µM": "%"}, "values": [{"smiles": "CNC(=O)c1cc(Oc2ccc3nc(NC(=O)c4cc(C(F)(F)F)cc(C(F)(F)F)c4)sc3c2)ccn1", "growth at 0.1 µM": 101}]}, {"tested_on": "not listed separately", "assay": "Antiproliferative activity against human SKOV3 cells assessed as cell growth at 10^-7 M after 48 hrs by sulforhodamine B assay", "assay_type": "functional", "conditions": "SK-OV-3, 48 h, read-out: Activity", "units": {"growth at 0.1 µM": "%"}, "values": [{"smiles": "CNC(=O)c1cc(Oc2ccc3nc(NC(=O)c4cc(C(F)(F)F)cc(C(F)(F)F)c4)sc3c2)ccn1", "growth at 0.1 µM": 91}]}, {"tested_on": "SR", "assay": "Antiproliferative activity against human SR cells assessed as cell growth at 10^-7 M after 48 hrs by sulforhodamine B assay", "assay_type": "functional", "conditions": "read-out: Activity", "units": {"growth at 0.1 µM": "%"}, "values": [{"smiles": "CNC(=O)c1cc(Oc2ccc3nc(NC(=O)c4cc(C(F)(F)F)cc(C(F)(F)F)c4)sc3c2)ccn1", "growth at 0.1 µM": 89}]}, {"tested_on": "not listed separately", "assay": "Antiproliferative activity against human SNB19 cells assessed as growth inhibition after 48 hrs by sulforhodamine B assay", "assay_type": "functional", "conditions": "SNB-19, 48 h", "units": {"GI50": "µM", "LC50 (50% lethal concentration)": "µM", "TGI": "µM"}, "values": [{"smiles": "CNC(=O)c1cc(Oc2ccc3nc(NC(=O)c4cc(C(F)(F)F)cc(C(F)(F)F)c4)sc3c2)ccn1", "GI50": 3.76, "LC50 (50% lethal concentration)": "> 100", "TGI": 22.8}]}, {"tested_on": "NCI-H226", "assay": "Antiproliferative activity against human NCI-H226 cells assessed as cell growth at 10^-7 M after 48 hrs by sulforhodamine B assay", "assay_type": "functional", "conditions": "NCI-H226, 48 h, read-out: Activity", "units": {"growth at 0.1 µM": "%"}, "values": [{"smiles": "CNC(=O)c1cc(Oc2ccc3nc(NC(=O)c4cc(C(F)(F)F)cc(C(F)(F)F)c4)sc3c2)ccn1", "growth at 0.1 µM": 99}]}, {"tested_on": "MCF7", "assay": "Antiproliferative activity against human MCF7 cells assessed as cell growth at 10^-8 M after 48 hrs by sulforhodamine B assay", "assay_type": "functional", "conditions": "MCF7, 48 h, read-out: Activity", "units": {"growth at 0.01 µM": "%"}, "values": [{"smiles": "CNC(=O)c1cc(Oc2ccc3nc(NC(=O)c4cc(C(F)(F)F)cc(C(F)(F)F)c4)sc3c2)ccn1", "growth at 0.01 µM": 93}]}, {"tested_on": "not listed separately", "assay": "Antiproliferative activity against human SF295 cells assessed as cell growth at 10^-4 M after 48 hrs by sulforhodamine B assay", "assay_type": "functional", "conditions": "SF-295, 48 h, read-out: Activity", "units": {"growth at 100 µM": "%"}, "values": [{"smiles": "CNC(=O)c1cc(Oc2ccc3nc(NC(=O)c4cc(C(F)(F)F)cc(C(F)(F)F)c4)sc3c2)ccn1", "growth at 100 µM": -73}]}, {"tested_on": "not listed separately", "assay": "Antiproliferative activity against human HCT15 cells assessed as cell growth at 10^-8 M after 48 hrs by sulforhodamine B assay", "assay_type": "functional", "conditions": "HCT-15, 48 h, read-out: Activity", "units": {"growth at 0.01 µM": "%"}, "values": [{"smiles": "CNC(=O)c1cc(Oc2ccc3nc(NC(=O)c4cc(C(F)(F)F)cc(C(F)(F)F)c4)sc3c2)ccn1", "growth at 0.01 µM": 104}]}, {"tested_on": "not listed separately", "assay": "(§1) Antiproliferative activity against human SF295 cells assessed as growth inhibition after 48 hrs by sulforhodamine B assay", "assay_type": "functional", "conditions": "SF-295, 48 h", "units": {"GI50": "µM", "TGI": "µM"}, "values": [{"smiles": "CNC(=O)c1cc(Oc2ccc3nc(NC(=O)c4cc(C(F)(F)F)cc(C(F)(F)F)c4)sc3c2)ccn1", "GI50": 2.56, "TGI": 10.5}]}, {"tested_on": "not listed separately", "assay": "as §1", "assay_type": "functional", "conditions": "SF-295, 48 h, read-out: LC50 (the source's name)", "units": {"CC50": "µM"}, "values": [{"smiles": "CNC(=O)c1cc(Oc2ccc3nc(NC(=O)c4cc(C(F)(F)F)cc(C(F)(F)F)c4)sc3c2)ccn1", "CC50": 49.6}]}, {"tested_on": "not listed separately", "assay": "Antiproliferative activity against human UACC62 cells assessed as cell growth at 10^-7 M after 48 hrs by sulforhodamine B assay", "assay_type": "functional", "conditions": "UACC-62, 48 h, read-out: Activity", "units": {"growth at 0.1 µM": "%"}, "values": [{"smiles": "CNC(=O)c1cc(Oc2ccc3nc(NC(=O)c4cc(C(F)(F)F)cc(C(F)(F)F)c4)sc3c2)ccn1", "growth at 0.1 µM": 86}]}, {"tested_on": "MDA-MB-435", "assay": "Antiproliferative activity against human MDA-MB-435 cells assessed as cell growth at 10^-8 M after 48 hrs by sulforhodamine B assay", "assay_type": "functional", "conditions": "MDA-MB-435, 48 h, read-out: Activity", "units": {"growth at 0.01 µM": "%"}, "values": [{"smiles": "CNC(=O)c1cc(Oc2ccc3nc(NC(=O)c4cc(C(F)(F)F)cc(C(F)(F)F)c4)sc3c2)ccn1", "growth at 0.01 µM": 101}]}, {"tested_on": "K562", "assay": "Antiproliferative activity against human K562 cells assessed as cell growth at 10^-4 M after 48 hrs by sulforhodamine B assay", "assay_type": "functional", "conditions": "K562, 48 h, read-out: Activity", "units": {"growth at 100 µM": "%"}, "values": [{"smiles": "CNC(=O)c1cc(Oc2ccc3nc(NC(=O)c4cc(C(F)(F)F)cc(C(F)(F)F)c4)sc3c2)ccn1", "growth at 100 µM": 4}]}, {"tested_on": "M14", "assay": "Antiproliferative activity against human M14 cells assessed as cell growth at 10^-6 M after 48 hrs by sulforhodamine B assay", "assay_type": "functional", "conditions": "M14, 48 h, read-out: Activity", "units": {"growth at 1 µM": "%"}, "values": [{"smiles": "CNC(=O)c1cc(Oc2ccc3nc(NC(=O)c4cc(C(F)(F)F)cc(C(F)(F)F)c4)sc3c2)ccn1", "growth at 1 µM": 94}]}, {"tested_on": "not listed separately", "assay": "Antiproliferative activity against human UACC257 cells assessed as cell growth at 10^-8 M after 48 hrs by sulforhodamine B assay", "assay_type": "functional", "conditions": "UACC-257, 48 h, read-out: Activity", "units": {"growth at 0.01 µM": "%"}, "values": [{"smiles": "CNC(=O)c1cc(Oc2ccc3nc(NC(=O)c4cc(C(F)(F)F)cc(C(F)(F)F)c4)sc3c2)ccn1", "growth at 0.01 µM": 87}]}, {"tested_on": "ACHN", "assay": "Antiproliferative activity against human ACHN cells assessed as cell growth at 10^-6 M after 48 hrs by sulforhodamine B assay", "assay_type": "functional", "conditions": "read-out: Activity", "units": {"growth at 1 µM": "%"}, "values": [{"smiles": "CNC(=O)c1cc(Oc2ccc3nc(NC(=O)c4cc(C(F)(F)F)cc(C(F)(F)F)c4)sc3c2)ccn1", "growth at 1 µM": 96}]}, {"tested_on": "not listed separately", "assay": "Antiproliferative activity against human HOP62 cells assessed as cell growth at 10^-6 M after 48 hrs by sulforhodamine B assay", "assay_type": "functional", "conditions": "HOP-62, 48 h, read-out: Activity", "units": {"growth at 1 µM": "%"}, "values": [{"smiles": "CNC(=O)c1cc(Oc2ccc3nc(NC(=O)c4cc(C(F)(F)F)cc(C(F)(F)F)c4)sc3c2)ccn1", "growth at 1 µM": 103}]}, {"tested_on": "not listed separately", "assay": "(§2) Antiproliferative activity against human COLO205 cells assessed as growth inhibition after 48 hrs by sulforhodamine B assay", "assay_type": "functional", "conditions": "COLO 205, 48 h", "units": {"GI50": "µM", "TGI": "µM"}, "values": [{"smiles": "CNC(=O)c1cc(Oc2ccc3nc(NC(=O)c4cc(C(F)(F)F)cc(C(F)(F)F)c4)sc3c2)ccn1", "GI50": 2.82, "TGI": 8.21}]}, {"tested_on": "not listed separately", "assay": "as §2", "assay_type": "functional", "conditions": "COLO 205, 48 h, read-out: LC50 (the source's name)", "units": {"CC50": "µM"}, "values": [{"smiles": "CNC(=O)c1cc(Oc2ccc3nc(NC(=O)c4cc(C(F)(F)F)cc(C(F)(F)F)c4)sc3c2)ccn1", "CC50": 32.8}]}]}
